Results from ChEMBL document CHEMBL3232937.
Active and inactive are the calls of the source. The rule behind the calls is not given here.

Tests used:
[1] = pampa
Description: Permeability of the compound by PAMPA

[2] = molecular target: T1, Casein kinase I isoform delta (Homo sapiens, UniProt P48730); settings: at 10 µM
Target sequence in this assay (P48730 whole entry, looked up, canonical isoform): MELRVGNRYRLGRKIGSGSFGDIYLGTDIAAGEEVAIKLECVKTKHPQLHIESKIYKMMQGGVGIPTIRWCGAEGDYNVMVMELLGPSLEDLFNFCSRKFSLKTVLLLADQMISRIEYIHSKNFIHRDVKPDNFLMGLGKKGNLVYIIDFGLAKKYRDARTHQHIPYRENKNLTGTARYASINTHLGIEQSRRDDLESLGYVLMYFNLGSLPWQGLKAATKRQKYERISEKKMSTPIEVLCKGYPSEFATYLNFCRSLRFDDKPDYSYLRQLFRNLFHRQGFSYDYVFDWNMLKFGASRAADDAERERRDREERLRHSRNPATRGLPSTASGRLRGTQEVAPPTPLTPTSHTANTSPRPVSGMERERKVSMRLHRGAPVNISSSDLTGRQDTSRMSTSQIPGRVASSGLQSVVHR
Description: Inhibition of human recombinant CK-1delta using casein as substrate at 10 uM after 60 mins by Kinase-Glo assay relative to control

[3] = molecular target: T1, Casein kinase I isoform delta; experiment: Inhibition of human recombinant CK-1delta using casein as substrate after 60 mins by Kinase-Glo assay
Target sequence in this assay (P48730 whole entry, canonical isoform): as the sequence (P48730 whole entry, looked up, canonical isoform) above

[4] = molecular target: T1, Casein kinase I isoform delta; experiment: Competitive inhibition of human recombinant CK-1delta using casein as substrate at 0.25 to 0.5 uM by Lineweaver-Burk plot analysis in presence of ATP
Target sequence in this assay (P48730 whole entry, looked up, canonical isoform): as above

| Structure (SMILES) | inhibition [2] | also measured |
| --- | --- | --- |
| CN1C(C(=O)Nc2ccccn2)=C(O)c2ccccc2S1(=O)=O [PIROXICAM] | – | permeability [1]: 0.5 ×10⁻⁶ cm/s |
| CC(=O)c1sc(NC(=O)Cc2cccc(Cl)c2)nc1C | > 60% | IC50 [3]: 1.12 µM |
| O=C(Cc1ccccc1Cl)Nc1nc2ccc(C(F)(F)F)cc2s1 | > 60% | – |
| CCOC(=O)c1sc(NC(=O)CNC(=O)CC(c2ccccc2)c2ccccc2)nc1C | – | IC50 [3]: 3.79 µM |
| O=C(Cc1cccc(Cl)c1)Nc1nc2ccc(OC(F)(F)F)cc2s1 | > 60% | – |
| COc1cc(CC(=O)Nc2nc3ccc(OC(F)(F)F)cc3s2)cc(OC)c1OC | > 60% | permeability [1]: 2.6 ×10⁻⁶ cm/s |
| COc1ccccc1CC(=O)Nc1nc2ccc(Cl)cc2s1 | > 60% | – |
| CCOC(=O)c1sc(NC(=O)CNC(=O)c2ccc(N3CCOCC3)cc2)nc1C | – | IC50 [3]: 9.31 µM |
| CCOc1ccc2nc(NC(=O)Cc3ccc(OC)cc3)sc2c1 | > 60% | – |
| CCOc1ccc2nc(NC(=O)Cc3cccc(Cl)c3)sc2c1 | > 60% | – |
| O=C(Cc1cccc(Cl)c1)Nc1nncs1 | 20% | – |
| COc1ccc2nc(NC(=O)Cc3ccccc3OC)sc2c1 | > 60% | – |
| O=C(Cc1cccc(C(F)(F)F)c1)Nc1nc2ccc(C(F)(F)F)cc2s1 | > 60% | permeability [1]: 6.4 ×10⁻⁶ cm/s |
| COc1ccc2nc(NC(=O)Cc3ccccc3Cl)sc2c1 | > 60% | – |
| COc1ccccc1CC(=O)Nc1nc2ccc(Br)cc2s1 | > 60% | – |
| CCOC(=O)c1sc(NC(=O)CNC(=O)Cc2ccccc2)nc1C | – | IC50 [3]: 10.1 µM |
| CCOc1ccc2nc(NC(=O)Cc3cc(OC)c(OC)c(OC)c3)sc2c1 | > 60% | – |
| O=C(Cc1ccc(Cl)c(Cl)c1)Nc1nc2ccc(OC(F)(F)F)cc2s1 | > 60% | – |
| CCOc1ccc2nc(NC(=O)Cc3ccccc3OC)sc2c1 | > 60% | – |
| CCOc1ccc2nc(NC(=O)Cc3ccc(Cl)c(Cl)c3)sc2c1 | > 60% | – |
| COc1ccccc1CC(=O)Nc1nc2ccc(OC(F)(F)F)cc2s1 | > 60% | – |
| COc1ccccc1CC(=O)Nc1nc2ccc(C(F)(F)F)cc2s1 | > 60% | permeability [1]: 11.2 ×10⁻⁶ cm/s |
| COc1ccc(OC)c(CC(=O)Nc2nc3ccc(C(F)(F)F)cc3s2)c1 | > 60% | – |
| O=C(CC(c1ccccc1)c1ccccc1)Nc1nc2ccccc2s1 | > 60% | – |
| O=C(Cc1ccc(Cl)cc1)Nc1nc2ccccc2o1 | > 60% | IC50 [3]: 4.11 µM |
| CCOc1ccc2nc(NC(=O)C(c3ccccc3)c3ccccc3)sc2c1 | > 60% | – |
| Cc1ccc2nc(NC(=O)Cc3cccc(Cl)c3)sc2c1 | > 60% | permeability [1]: 5.6 ×10⁻⁶ cm/s |
| CCOc1ccc2nc(NC(=O)Cc3ccc(Cl)cc3)sc2c1 | > 60% | IC50 [3]: 1.11 µM |

| Structure (SMILES) | inhibition [2] | also measured |
| --- | --- | --- |
| COc1ccc(NC(=O)Nc2nc3ccc(C(F)(F)F)cc3s2)cc1 | > 60% | – |
| O=C(Cc1ccccc1)Nc1nc2ccccc2s1 | > 60% | – |
| COc1ccc2nc(NC(=O)Cc3cccc(Cl)c3)sc2c1 | > 60% | – |
| O=C(Cc1ccc(Cl)cc1)Nc1nc2ccc(C(F)(F)F)cc2s1 | > 60% | permeability [1]: 9.6 ×10⁻⁶ cm/s |
| CCOc1ccc2nc(NC(=O)Cc3cccc(OC)c3)sc2c1 | > 60% | – |
| COc1ccccc1CC(=O)Nc1nc2ccc(C)cc2s1 | > 60% | – |
| CCOC(=O)c1sc(NC(=O)CNC(=O)c2ccccc2)nc1C | – | IC50 [3]: 7.45 µM |
| COc1ccc(CC(=O)Nc2nc3ccc(C(F)(F)F)cc3s2)cc1 | > 60% | permeability [1]: 14.6 ×10⁻⁶ cm/s |
| COc1ccc2nc(NC(=O)Cc3ccc(Cl)c(Cl)c3)sc2c1 | > 60% | – |
| CNCCCN1c2ccccc2CCc2ccccc21 [DESIPRAMINE] | – | permeability [1]: 14.6 ×10⁻⁶ cm/s |
| O=C(Cc1cccc(Cl)c1)Nc1nc2ccc(C(F)(F)F)cc2s1 | > 60% | permeability [1]: 11.2 ×10⁻⁶ cm/s |
| COc1cccc(CC(=O)Nc2nc3ccc(OC)cc3s2)c1 | > 60% | – |
| COc1ccc2nc(NC(=O)Cc3ccc(Cl)cc3)sc2c1 | > 60% | – |
| CN(C)CCCN1c2ccccc2Sc2ccccc21 [PROMAZINE] | – | permeability [1]: 12.7 ×10⁻⁶ cm/s |
| COc1cc(CC(=O)Nc2nc3ccc(C(F)(F)F)cc3s2)cc(OC)c1OC | > 60% | permeability [1]: 7.2 ×10⁻⁶ cm/s |
| CCOc1ccc2nc(NC(=O)Cc3ccccc3Cl)sc2c1 | > 60% | – |
| CS(=O)(=O)c1ccc2nc(NC(=O)Cc3cccs3)sc2c1 | – | IC50 [3]: 2.69 µM |
| COc1ccc2nc(NC(=O)Cc3cc(OC)c(OC)c(OC)c3)sc2c1 | > 60% | IC50 [3]: 1.12 µM |
| CCOC(=O)c1sc(NC(=O)COCc2ccccc2)nc1C | > 60% | IC50 [3]: 7.38 µM |
| COc1cc(OC)c(C=C2C(=O)Nc3ccccc32)c(OC)c1 | – | inhibition [4]: Active |
| O=C(Cc1ccccc1)Nc1nc2ccc(C(F)(F)F)cc2s1 | > 60% | permeability [1]: 4.4 ×10⁻⁶ cm/s |
| O=C(CCc1cccc(Cl)c1)Nc1nc2ccccc2s1 | > 60% | – |
| O=C(Nc1nc2ccccc2s1)C(c1ccccc1)c1ccccc1 | > 60% | – |
| COc1ccccc1CC(=O)Nc1nc2ccc(F)cc2s1 | > 60% | – |
| COc1cccc(CC(=O)Nc2nc3ccc(C(F)(F)F)cc3s2)c1 | > 60% | permeability [1]: 11.2 ×10⁻⁶ cm/s |
| O=C(Cc1ccc(Cl)c(Cl)c1)Nc1nc2ccc(C(F)(F)F)cc2s1 | > 60% | permeability [1]: 1.4 ×10⁻⁶ cm/s |
| COc1ccc(CC(=O)Nc2nc3ccc(OC)cc3s2)cc1 | > 60% | – |
